Calls of active or inactive are those of the source. No cut-off for these calls is given here.
Experiments:
[1] = target: Cannabinoid receptor 1 (Homo sapiens) (UniProt P21554); assay: Antagonist activity at CB1 receptor expressed in NG108-15 cells assessed as abrogation of 2-archidonoylglycerol-induced increase in intracellular free calcium levels; assay type: functional, cell-based
Cannabinoid receptor 2 [2] = target: T1, Cannabinoid receptor 2 (Homo sapiens, UniProt P34972); assay: Agonist activity at CB2 receptor expressed in HL60 cells assessed as increase in intracellular free calcium concentrations; assay type: functional, cell-based, HL-60
Cannabinoid receptor 2 [3] = target: T1, Cannabinoid receptor 2; assay: Antagonist activity at CB2 receptor expressed in HL60 cells assessed as abrogation of 2-archidonoylglycerol-induced increase in intracellular free calcium levels; assay type: functional, cell-based; conditions: HL-60

T1 sequence (P34972 whole entry): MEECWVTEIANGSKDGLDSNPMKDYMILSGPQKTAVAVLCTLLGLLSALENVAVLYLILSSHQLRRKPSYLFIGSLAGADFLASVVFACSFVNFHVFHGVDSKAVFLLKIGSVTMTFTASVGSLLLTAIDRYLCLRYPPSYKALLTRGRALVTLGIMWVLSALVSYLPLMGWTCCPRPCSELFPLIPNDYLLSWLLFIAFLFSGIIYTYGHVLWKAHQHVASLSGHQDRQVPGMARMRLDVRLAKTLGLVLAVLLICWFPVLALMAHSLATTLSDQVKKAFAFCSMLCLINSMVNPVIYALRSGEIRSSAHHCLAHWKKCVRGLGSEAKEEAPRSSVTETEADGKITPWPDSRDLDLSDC
Cannabinoid receptor 1 (Homo sapiens), sequence (P21554 whole entry): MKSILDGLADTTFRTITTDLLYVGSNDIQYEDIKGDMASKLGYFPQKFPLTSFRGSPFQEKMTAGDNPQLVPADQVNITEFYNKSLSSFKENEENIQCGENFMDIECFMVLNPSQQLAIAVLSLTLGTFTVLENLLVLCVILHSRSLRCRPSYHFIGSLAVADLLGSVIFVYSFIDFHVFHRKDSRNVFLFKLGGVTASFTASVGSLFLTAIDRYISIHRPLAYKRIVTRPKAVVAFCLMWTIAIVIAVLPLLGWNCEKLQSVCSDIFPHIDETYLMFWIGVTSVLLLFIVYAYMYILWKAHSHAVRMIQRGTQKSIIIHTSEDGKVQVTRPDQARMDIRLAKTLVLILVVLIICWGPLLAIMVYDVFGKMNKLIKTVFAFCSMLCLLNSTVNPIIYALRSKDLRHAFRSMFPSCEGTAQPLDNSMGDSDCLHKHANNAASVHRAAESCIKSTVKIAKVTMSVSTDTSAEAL

Question: `CCCCC/C=C\C/C=C\C/C=C\C/C=C\CCCC(=O)OC(CO)CO` [2-ARACHIDONOYLGLYCEROL] was tested. Which Activity [1] did it give?
Answer: Its Activity is “Active”.

Question: What about the EC50 (Cannabinoid receptor 2 [2]) of the same compound?
Answer: The EC50 was 17 nM.

Question: What about the Activity (Cannabinoid receptor 2 [3]) of the same compound?
Answer: Its Activity is “Active”.

Reference: ChEMBL document CHEMBL1144569 (Bioorg Med Chem, 2007)
